Measured values from patent publication US12365696B2, “Small-molecule focal adhesion kinase (FAK) inhibitors” (DANA-FARBER CANCER INSTITUTE, INC., priority 2019, dated 2025).

How the values were obtained:
Assay in all cases: KINOMEscan
Format in all cases: binding
[1] = target: PIM2 (Homo sapiens (Human), UniProt Q9P1W9); conditions: PIM2, 10000 nM; read-out: Percent Control
[2] = target: PIK3CA (Homo sapiens (Human), UniProt P42336); conditions: 10000 nM, read-out: Percent Control
[3] = target: CHEK2 (Homo sapiens (Human), UniProt O96017); conditions: CHEK2, 10000 nM; read-out: Percent Control
[4] = target: PIM1 (Homo sapiens (Human), UniProt P11309); conditions: PIM1, 10000 nM; read-out: Percent Control
Sequence of PIM1 (P11309 whole entry): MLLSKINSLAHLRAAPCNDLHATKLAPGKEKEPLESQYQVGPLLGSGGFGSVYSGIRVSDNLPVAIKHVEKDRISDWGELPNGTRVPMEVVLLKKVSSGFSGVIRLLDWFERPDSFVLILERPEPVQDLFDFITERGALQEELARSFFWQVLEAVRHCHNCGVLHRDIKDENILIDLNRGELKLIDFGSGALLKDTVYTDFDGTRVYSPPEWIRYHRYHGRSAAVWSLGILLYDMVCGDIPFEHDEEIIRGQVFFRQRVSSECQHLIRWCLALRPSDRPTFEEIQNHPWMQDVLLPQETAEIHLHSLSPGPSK

[5] = target: CSNK2A1 (Homo sapiens (Human), UniProt P68400); conditions: CSNK2A1, 10000 nM; read-out: Percent Control
[6] = target: STK36 (Homo sapiens (Human), UniProt Q9NRP7); conditions: STK36, 10000 nM; read-out: Percent Control
[7] = target: AURKC (Homo sapiens (Human), UniProt Q9UQB9); conditions: 10000 nM, read-out: Percent Control
[8] = target: MERTK (Homo sapiens (Human), UniProt Q12866); conditions: 10000 nM, read-out: Percent Control
[9] = target: SgK110 (Homo sapiens (Human), UniProt P0C264); conditions: SgK110, 10000 nM; read-out: Percent Control
Sequence of SgK110 (P0C264 whole entry): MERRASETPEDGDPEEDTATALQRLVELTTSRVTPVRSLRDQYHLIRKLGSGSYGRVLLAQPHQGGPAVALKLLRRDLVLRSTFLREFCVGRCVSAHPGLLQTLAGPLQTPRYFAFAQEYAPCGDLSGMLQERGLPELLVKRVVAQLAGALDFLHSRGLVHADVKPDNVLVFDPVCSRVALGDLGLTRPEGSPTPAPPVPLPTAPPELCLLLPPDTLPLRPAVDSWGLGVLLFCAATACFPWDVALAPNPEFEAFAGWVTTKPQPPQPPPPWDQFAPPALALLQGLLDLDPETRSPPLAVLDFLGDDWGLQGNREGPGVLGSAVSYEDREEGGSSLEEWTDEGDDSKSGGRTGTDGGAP

[10] = target: GRK3 (Homo sapiens (Human), UniProt P35626); conditions: GRK3, 10000 nM; read-out: Percent Control
[11] = target: ABL1(T315I)-nonphosphorylated (Homo sapiens (Human), UniProt P00519, T315I); conditions: 10000 nM, read-out: Percent Control
[12] = target: FLT3(K663Q) (Homo sapiens (Human), UniProt P36888, K663Q); conditions: 10000 nM, read-out: Percent Control
[13] = target: WEE2 (Homo sapiens (Human), UniProt P0C1S8); conditions: WEE2, 10000 nM; read-out: Percent Control
[14] = target: CDC2L5 (Homo sapiens (Human), UniProt Q14004); conditions: CDC2L5, 10000 nM; read-out: Percent Control
Procedure: (§1) Selectivity profiling of compound 3 among a panel of kinases was performed with KINOMEscan® as set forth below. The KINOMEscan® screening platform employs an active site-directed competition binding assay to quantitatively measure interactions between a test compound, e.g., compound 3, and more than 450 kinases and disease-relevant mutant variants.
(§2) Screening of compound 3 was conducted at a concentration of 10 μM by Eurofins DiscoverX. Activity is measured as the ability of compound 3 to displace the kinase from a solid support relative to a negative control (i.e., DMSO). The output is % control.

[15] = target: PRP4 (Homo sapiens (Human), UniProt Q13523); conditions: PRP4, 10000 nM; read-out: Percent Control
Procedure: as §1, §2

[16] = target: ABL1(M351T)-phosphorylated (Homo sapiens (Human), UniProt P00519, M351T); conditions: 10000 nM, read-out: Percent Control
[17] = target: PRKR (Homo sapiens (Human), UniProt P19525); conditions: 10000 nM, read-out: Percent Control
[18] = target: ERK5 (Homo sapiens (Human), UniProt Q13164); conditions: ERK5, 10000 nM; read-out: Percent Control
Sequence of ERK5 (Q13164 whole entry): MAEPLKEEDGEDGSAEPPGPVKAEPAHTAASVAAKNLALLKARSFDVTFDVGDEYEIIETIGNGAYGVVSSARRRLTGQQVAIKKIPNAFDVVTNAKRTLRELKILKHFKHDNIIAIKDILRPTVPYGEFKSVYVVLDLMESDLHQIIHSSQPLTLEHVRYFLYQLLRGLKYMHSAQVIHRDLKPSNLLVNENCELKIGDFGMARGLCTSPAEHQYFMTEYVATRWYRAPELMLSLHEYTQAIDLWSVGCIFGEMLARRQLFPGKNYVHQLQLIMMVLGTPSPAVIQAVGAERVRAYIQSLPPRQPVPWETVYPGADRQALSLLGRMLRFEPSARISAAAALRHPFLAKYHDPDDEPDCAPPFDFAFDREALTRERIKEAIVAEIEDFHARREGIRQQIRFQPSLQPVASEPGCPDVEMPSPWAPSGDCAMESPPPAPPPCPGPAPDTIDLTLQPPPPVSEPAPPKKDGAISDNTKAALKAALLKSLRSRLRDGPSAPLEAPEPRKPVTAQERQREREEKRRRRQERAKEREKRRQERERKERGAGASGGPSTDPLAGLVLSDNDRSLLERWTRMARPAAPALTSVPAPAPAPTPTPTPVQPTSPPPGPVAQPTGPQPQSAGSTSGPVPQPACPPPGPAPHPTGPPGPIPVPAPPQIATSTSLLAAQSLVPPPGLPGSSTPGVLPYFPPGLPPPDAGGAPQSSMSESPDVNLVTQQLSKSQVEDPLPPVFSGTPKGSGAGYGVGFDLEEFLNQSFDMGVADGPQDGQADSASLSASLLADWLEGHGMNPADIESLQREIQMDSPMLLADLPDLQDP

[19] = target: MKK7 (Homo sapiens (Human), UniProt O14733); conditions: MKK7, 10000 nM; read-out: Percent Control
[20] = target: KIT(D816H) (Homo sapiens (Human), UniProt P10721, D816H); conditions: 10000 nM, read-out: Percent Control
Sequence of KIT(D816H) (P10721 26-976 D816H): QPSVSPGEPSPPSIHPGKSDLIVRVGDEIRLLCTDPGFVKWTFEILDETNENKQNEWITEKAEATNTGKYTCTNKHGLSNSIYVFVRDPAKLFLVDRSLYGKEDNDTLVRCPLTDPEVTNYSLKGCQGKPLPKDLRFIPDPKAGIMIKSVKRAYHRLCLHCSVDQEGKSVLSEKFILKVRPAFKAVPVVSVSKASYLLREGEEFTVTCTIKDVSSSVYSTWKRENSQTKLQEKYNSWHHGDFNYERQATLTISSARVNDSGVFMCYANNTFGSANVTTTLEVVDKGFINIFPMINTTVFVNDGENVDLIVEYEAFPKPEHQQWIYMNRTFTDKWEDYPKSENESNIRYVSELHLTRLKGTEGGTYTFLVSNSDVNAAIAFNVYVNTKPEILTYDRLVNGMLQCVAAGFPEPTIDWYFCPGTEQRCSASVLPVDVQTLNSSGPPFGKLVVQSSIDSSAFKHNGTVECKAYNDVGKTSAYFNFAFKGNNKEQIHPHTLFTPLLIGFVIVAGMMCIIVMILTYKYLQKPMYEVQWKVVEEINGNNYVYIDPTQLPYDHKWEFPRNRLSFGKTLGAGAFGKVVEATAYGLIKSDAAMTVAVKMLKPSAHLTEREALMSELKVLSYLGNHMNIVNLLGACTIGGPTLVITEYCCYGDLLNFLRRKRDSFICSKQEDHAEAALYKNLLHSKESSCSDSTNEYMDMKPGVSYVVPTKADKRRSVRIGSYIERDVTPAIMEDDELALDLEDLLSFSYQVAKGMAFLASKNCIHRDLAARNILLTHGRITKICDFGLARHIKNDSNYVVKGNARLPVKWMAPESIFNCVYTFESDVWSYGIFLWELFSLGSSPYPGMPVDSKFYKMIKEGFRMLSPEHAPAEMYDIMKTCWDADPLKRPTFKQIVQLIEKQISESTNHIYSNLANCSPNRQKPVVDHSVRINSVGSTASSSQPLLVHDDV

[21] = target: TXK (Homo sapiens (Human), UniProt P42681); conditions: 10000 nM, read-out: Percent Control
Sequence of TXK (P42681 whole entry): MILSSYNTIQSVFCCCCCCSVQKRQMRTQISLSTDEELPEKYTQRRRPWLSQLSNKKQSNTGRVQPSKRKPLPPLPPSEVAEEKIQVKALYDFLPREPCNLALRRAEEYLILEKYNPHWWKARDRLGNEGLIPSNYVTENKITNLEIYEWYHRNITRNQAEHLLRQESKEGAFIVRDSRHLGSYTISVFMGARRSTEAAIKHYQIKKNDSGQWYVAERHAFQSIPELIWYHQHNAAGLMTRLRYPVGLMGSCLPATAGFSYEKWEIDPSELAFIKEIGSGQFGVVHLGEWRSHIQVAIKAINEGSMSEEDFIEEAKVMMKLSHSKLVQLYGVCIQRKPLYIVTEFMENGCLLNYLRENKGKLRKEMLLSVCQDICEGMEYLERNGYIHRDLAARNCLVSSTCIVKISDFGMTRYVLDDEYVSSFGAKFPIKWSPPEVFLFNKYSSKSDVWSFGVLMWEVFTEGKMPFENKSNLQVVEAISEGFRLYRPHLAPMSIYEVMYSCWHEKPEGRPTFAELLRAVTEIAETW

[22] = target: FLT3(R834Q) (Homo sapiens (Human), UniProt P36888, R834Q); conditions: 10000 nM, read-out: Percent Control
[23] = target: CDKL3 (Homo sapiens (Human), UniProt Q8IVW4); conditions: CDKL3, 10000 nM; read-out: Percent Control
Sequence of CDKL3 (Q8IVW4 whole entry): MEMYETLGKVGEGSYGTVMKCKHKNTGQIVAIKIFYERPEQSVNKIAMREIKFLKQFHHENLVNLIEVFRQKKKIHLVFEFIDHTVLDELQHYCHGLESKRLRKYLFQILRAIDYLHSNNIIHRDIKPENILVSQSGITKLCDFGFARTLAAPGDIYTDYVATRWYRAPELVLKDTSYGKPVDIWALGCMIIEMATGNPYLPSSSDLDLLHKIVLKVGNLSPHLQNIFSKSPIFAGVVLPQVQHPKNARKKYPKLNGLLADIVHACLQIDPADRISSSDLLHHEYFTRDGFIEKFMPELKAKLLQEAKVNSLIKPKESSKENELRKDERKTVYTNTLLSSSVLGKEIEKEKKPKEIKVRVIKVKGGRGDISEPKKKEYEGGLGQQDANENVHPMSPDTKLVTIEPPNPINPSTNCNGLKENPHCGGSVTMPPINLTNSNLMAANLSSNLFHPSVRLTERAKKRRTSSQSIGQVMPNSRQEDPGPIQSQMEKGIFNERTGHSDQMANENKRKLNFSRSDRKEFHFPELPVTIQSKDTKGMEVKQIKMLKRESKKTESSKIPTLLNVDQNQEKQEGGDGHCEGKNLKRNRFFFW

[24] = target: RAF1 (Homo sapiens (Human), UniProt P04049); conditions: RAF1, 10000 nM; read-out: Percent Control
Sequence of RAF1 (P04049 whole entry): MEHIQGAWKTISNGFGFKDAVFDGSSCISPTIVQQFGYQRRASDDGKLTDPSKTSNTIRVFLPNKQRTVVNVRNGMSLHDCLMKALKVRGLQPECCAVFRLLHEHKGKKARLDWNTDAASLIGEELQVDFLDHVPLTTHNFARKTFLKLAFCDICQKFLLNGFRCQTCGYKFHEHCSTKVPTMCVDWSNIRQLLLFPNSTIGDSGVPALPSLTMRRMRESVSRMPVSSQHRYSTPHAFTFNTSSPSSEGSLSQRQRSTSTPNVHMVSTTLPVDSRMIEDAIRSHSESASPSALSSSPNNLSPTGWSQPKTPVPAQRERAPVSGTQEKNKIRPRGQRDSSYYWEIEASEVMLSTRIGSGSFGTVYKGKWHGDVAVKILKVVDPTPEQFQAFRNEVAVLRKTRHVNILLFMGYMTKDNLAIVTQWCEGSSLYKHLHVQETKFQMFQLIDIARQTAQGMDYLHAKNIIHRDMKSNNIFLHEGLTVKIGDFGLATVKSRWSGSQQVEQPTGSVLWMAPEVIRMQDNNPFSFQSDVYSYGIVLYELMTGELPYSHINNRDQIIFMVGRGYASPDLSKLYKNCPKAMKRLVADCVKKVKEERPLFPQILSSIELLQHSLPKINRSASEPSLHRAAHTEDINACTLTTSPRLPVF

[25] = target: SBK1 (Homo sapiens (Human), UniProt Q52WX2); conditions: SBK1, 10000 nM; read-out: Percent Control
[26] = target: AMPK-alpha2 (Homo sapiens (Human), UniProt P54646); conditions: AMPK-alpha2, 10000 nM; read-out: Percent Control
Sequence of AMPK-alpha2 (P54646 whole entry): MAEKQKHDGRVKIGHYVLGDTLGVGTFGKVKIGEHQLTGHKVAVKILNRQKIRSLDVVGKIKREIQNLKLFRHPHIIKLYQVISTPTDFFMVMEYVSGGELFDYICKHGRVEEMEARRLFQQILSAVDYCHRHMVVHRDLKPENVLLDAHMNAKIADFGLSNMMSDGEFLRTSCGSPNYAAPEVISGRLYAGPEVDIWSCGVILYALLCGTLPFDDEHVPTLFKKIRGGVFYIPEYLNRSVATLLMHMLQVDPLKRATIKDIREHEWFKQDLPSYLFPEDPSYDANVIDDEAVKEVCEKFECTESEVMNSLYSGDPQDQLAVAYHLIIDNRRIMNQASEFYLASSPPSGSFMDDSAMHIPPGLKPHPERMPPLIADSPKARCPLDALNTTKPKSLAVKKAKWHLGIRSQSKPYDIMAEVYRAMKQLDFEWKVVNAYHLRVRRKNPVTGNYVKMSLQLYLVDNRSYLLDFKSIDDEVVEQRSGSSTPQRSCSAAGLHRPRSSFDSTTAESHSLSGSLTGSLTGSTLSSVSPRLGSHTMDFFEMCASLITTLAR

[27] = target: TSSK1B (Homo sapiens (Human), UniProt Q9BXA7); conditions: 10000 nM, read-out: Percent Control
[28] = target: MAP3K1 (Homo sapiens (Human), UniProt Q13233); conditions: MAP3K1, 10000 nM; read-out: Percent Control
[29] = target: ABL1(F317I)-phosphorylated (Homo sapiens (Human), UniProt P00519, F317I); conditions: 10000 nM, read-out: Percent Control
[30] = target: OSR1 (Homo sapiens (Human), UniProt O95747); conditions: OSR1, 10000 nM; read-out: Percent Control
[31] = target: RSK4(Kin.Dom.1-N-terminal) (Homo sapiens (Human), UniProt Q9UK32); conditions: 10000 nM, read-out: Percent Control
Sequence of RSK4(Kin.Dom.1-N-terminal) (Q9UK32 73-330): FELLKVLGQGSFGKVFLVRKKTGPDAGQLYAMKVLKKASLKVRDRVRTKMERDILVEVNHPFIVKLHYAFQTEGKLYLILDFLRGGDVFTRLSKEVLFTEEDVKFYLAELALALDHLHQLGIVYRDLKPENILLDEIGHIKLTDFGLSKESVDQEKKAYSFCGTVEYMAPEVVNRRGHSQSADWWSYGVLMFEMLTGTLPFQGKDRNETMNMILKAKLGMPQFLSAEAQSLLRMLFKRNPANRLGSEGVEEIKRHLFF

## COc1cc(N2CCC(N3CCN(C)CC3)CC2)ccc1Nc1ncc2c(n1)N(C)c1sc(C)nc1C(=O)N2 [Compound 3, 6-((2-methoxy-4-(4-(4-methylpiperazin-1-yl)piperidin-1-yl)phenyl)amino)-2,4-dimethyl-4,9-dihydro-10H-pyrimido[5,4-b]thiazolo[5,4-e][1,4]diazepin-10-one]
[1]
  remaining binding at 10 µM: 92%
[2]
  remaining binding at 10 µM: 100%
[3]
  remaining binding at 10 µM: 72%
[4]
  remaining binding at 10 µM: 70%
[5]
  remaining binding at 10 µM: 93%
[6]
  remaining binding at 10 µM: 61%
[7]
  remaining binding at 10 µM: 95%
[8]
  remaining binding at 10 µM: 93%
[9]
  remaining binding at 10 µM: 86%
[10]
  remaining binding at 10 µM: 100%
[11]
  remaining binding at 10 µM: 100%
[12]
  remaining binding at 10 µM: 96%
[13]
  remaining binding at 10 µM: 65%
[14]
  remaining binding at 10 µM: 100%
[15]
  remaining binding at 10 µM: 100%
[16]
  remaining binding at 10 µM: 19%
[17]
  remaining binding at 10 µM: 100%
[18]
  remaining binding at 10 µM: 80%
[19]
  remaining binding at 10 µM: 100%
[20]
  remaining binding at 10 µM: 22%
[21]
  remaining binding at 10 µM: 73%
[22]
  remaining binding at 10 µM: 100%
[23]
  remaining binding at 10 µM: 75%
[24]
  remaining binding at 10 µM: 85%
[25]
  remaining binding at 10 µM: 100%
[26]
  remaining binding at 10 µM: 83%
[27]
  remaining binding at 10 µM: 74%
[28]
  remaining binding at 10 µM: 100%
[29]
  remaining binding at 10 µM: 14%
[30]
  remaining binding at 10 µM: 100%
[31]
  remaining binding at 10 µM: 100%

## COc1cc(N2CCC(N3CCN(C)CC3)CC2)ccc1Nc1ncc2c(n1)N(C)c1sc(C)nc1C(=O)N2C [Compound 5, 6-((2-methoxy-4-(4-(4-methylpiperazin-1-yl)piperidin-1-yl)phenyl)amino)-2,4,9-trimethyl-4,9-dihydro-10H-pyrimido[5,4-b]thiazolo[5,4-e][1,4]diazepin-10-one]
[1]
  remaining binding at 10 µM: 100%
[2]
  remaining binding at 10 µM: 100%
[3]
  remaining binding at 10 µM: 100%
[4]
  remaining binding at 10 µM: 97%
[5]
  remaining binding at 10 µM: 95%
[6]
  remaining binding at 10 µM: 100%
[7]
  remaining binding at 10 µM: 100%
[8]
  remaining binding at 10 µM: 100%
[9]
  remaining binding at 10 µM: 92%
[10]
  remaining binding at 10 µM: 81%
[11]
  remaining binding at 10 µM: 100%
[12]
  remaining binding at 10 µM: 96%
[13]
  remaining binding at 10 µM: 100%
[14]
  remaining binding at 10 µM: 100%
[15]
  remaining binding at 10 µM: 100%
[16]
  remaining binding at 10 µM: 95%
[17]
  remaining binding at 10 µM: 65%
[18]
  remaining binding at 10 µM: 30%
[19]
  remaining binding at 10 µM: 100%
[20]
  remaining binding at 10 µM: 100%
[21]
  remaining binding at 10 µM: 99%
[22]
  remaining binding at 10 µM: 81%
[23]
  remaining binding at 10 µM: 100%
[24]
  remaining binding at 10 µM: 95%
[25]
  remaining binding at 10 µM: 98%
[26]
  remaining binding at 10 µM: 100%
[27]
  remaining binding at 10 µM: 68%
[28]
  remaining binding at 10 µM: 100%
[29]
  remaining binding at 10 µM: 26%
[30]
  remaining binding at 10 µM: 100%
[31]
  remaining binding at 10 µM: 91%
